Biological target: T1, Human M4 (Homo sapiens, UniProt P08173)
T1 construct: expressed in transfected cells; host or cells: CHO-K1 (ATCC), stably co-expressing chimeric G protein Gqi5
T1 sequence (P08173 1-479): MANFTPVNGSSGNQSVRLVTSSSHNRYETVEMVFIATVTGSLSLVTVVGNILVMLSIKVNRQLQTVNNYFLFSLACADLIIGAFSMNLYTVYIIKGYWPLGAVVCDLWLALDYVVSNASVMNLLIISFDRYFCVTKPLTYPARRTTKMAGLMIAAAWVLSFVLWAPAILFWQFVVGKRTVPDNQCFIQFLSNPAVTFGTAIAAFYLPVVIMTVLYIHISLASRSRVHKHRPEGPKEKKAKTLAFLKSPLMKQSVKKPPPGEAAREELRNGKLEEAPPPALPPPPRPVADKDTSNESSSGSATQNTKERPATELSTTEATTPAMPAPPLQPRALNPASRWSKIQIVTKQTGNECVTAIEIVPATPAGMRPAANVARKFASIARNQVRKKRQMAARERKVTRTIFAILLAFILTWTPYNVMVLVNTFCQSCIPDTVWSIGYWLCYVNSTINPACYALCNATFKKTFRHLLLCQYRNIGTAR
Assay: mAChR M4 cell-based functional assay (calcium flux, Fluo-4, M4/Gqi5/CHO-K1 cells)
Conditions: for remaining activity at 30 µM: CHO-K1, read-out: Human M4 Emin (%), % ACh maximum at 30 μM
Procedure: Human or rat M4 cDNA, along with the chimeric G protein Gqi5, were transfected into Chinese hamster ovary (CHO-K1) cells purchased from the American Type Culture Collection using Lipofectamine2000. M4/Gqi5/CHO cells were grown in Ham's F-12 medium containing 10% heat-inactivated fetal bovine serum (FBS), 20 mM HEPES, 500 μg/mL 418 sulfate, and 200 μg/mL Hygromycin B.
For high throughput measurement of agonist-evoked increases in intracellular calcium, CHO-K1 cells stably expressing muscarinic receptors were plated in growth medium lacking 418 and hygromycin at 15,000 cells/20 μL/well in Greiner 384-well black-walled, tissue culture (TC)-treated, clear-bottom plates (VWR). Cells were incubated overnight at 37° C. and 5% CO2. The next day, cells were washed using an ELX 405 (BioTek) with assay buffer; the final volume was then aspirated to 20 μL. Next, 20 μL of a 2.3 μM stock of Fluo-4/acetoxymethyl ester (Invitrogen, Carlsbad, CA), prepared as a 2.3 mM stock in DMSO and mixed in a 1:1 ratio with 10% (w/v) Pluronic F-127 and diluted in assay buffer, was added to the wells and the cell plates were incubated for 50 min at 37° C. and 5% CO2. Dye was removed by washing with the ELX 405 and the final volume was aspirated to 20 μL. Compound master plates were formatted in a 10 point concentration-response curve (CRC) format (1:3 dilutions) in 100% DMSO with a starting concentration of 10 or 1 mM using a BRAVO liquid handler (Agilent). Test compound CRCs were then transferred to daughter plates (240 nL) using the Echo acoustic plate reformatter (Labcyte, Sunnyvale, CA) and then diluted into assay buffer (40 μL) to a 2× stock using a Thermo Fisher Combi (Thermo Fisher Scientific, Waltham, MA).
Calcium flux was measured using the Functional Drug Screening System (FDSS) 6000 or 7000 (Hamamatsu Corporation, Tokyo, Japan) as an increase in the fluorescent static ratio. Compounds were applied to cells (20 μL, 2×) using the automated system of the FDSS at 2 seconds into the protocol and the data were collected at 1 Hz. At 143 s, 10 μL of an EC20 concentration of the muscarinic receptor agonist acetylcholine was added (5×), followed by the addition of 12 μL of an EC80 concentration of acetylcholine at the 268 s time point (5×). Agonist activity was analyzed as a concentration-dependent increase in calcium mobilization upon compound addition. Positive allosteric modulator activity was analyzed as a concentration-dependent increase in the EC20 acetylcholine response. Antagonist activity was analyzed as a concentration-dependent decrease in the ECK) acetylcholine response; for the purposes of the tables herein, an IC50 (inhibitory concentration 50) was calculated as a concentration-dependent decrease of the response elicited by an ECK) concentration of acetylcholine. Concentration-response curves were generated using a four-parameter logistical equation in XLFit curve fitting software (IDBS, Bridgewater, NJ) for Excel (Microsoft, Redmond, WA) or Prism (GraphPad Software, Inc., San Diego, CA) or the Dotmatics software platform (Dotmatics, Bishop's Stortford, UK).
Compounds were synthesized as described above. Activity (IC50 and Emin) was determined in the mAChR M4 cell-based functional assay as described above and the data are shown in Table 2.

Compound | IC50 [nM] | remaining activity at 30 µM [%]
Cc1ccc(F)cc1-c1nnc(N[C@H]2C[C@@H]3CN(CC4CCOCC4)C[C@@H]3C2)c2ccsc12 [compound 3, 7-(5-fluoro-2-methylphenyl)-N-((3aR,5s,6aS)-2-((tetrahydro-2H-pyran-4-yl)methyl)octahydrocyclopenta[c]pyrrol-5-yl)thieno[2,3-d]pyridazin-4-amine] | 5.11 | 3
Fc1cc(F)c(F)c(-c2nnc(N[C@H]3C[C@@H]4CN(CC5CCOCC5)C[C@@H]4C3)c3ccsc23)c1 [compound 16, N-((3aR,5s,6aS)-2-((tetrahydro-2H-pyran-4-yl)methyl)octahydrocyclopenta[c]pyrrol-5-yl)-7-(2,3,5-trifluorophenyl)thieno[2,3-d]pyridazin-4-amine] | 1.71 | 4
c1ccc(-c2nnc(N[C@H]3C[C@@H]4CN(CC5CCOCC5)C[C@@H]4C3)c3ccsc23)cc1 [compound 8, 7-phenyl-N-((3aR,5s,6aS)-2-((tetrahydro-2H-pyran-4-yl)methyl)octahydrocyclopenta[c]pyrrol-5-yl)thieno[2,3-d]pyridazin-4-amine] | 4.72 | 3
FC1(F)CCN(c2nnc(N[C@H]3C[C@@H]4CN(CC5CCOCC5)C[C@@H]4C3)c3ccsc23)CC1 [compound 20, 7-(4,4-difluoropiperidin-1-yl)-N-((3aR,5s,6aS)-2-((tetrahydro-2H-pyran-4-yl)methyl)octahydrocyclopenta[c]pyrrol-5-yl)thieno[2,3-d]pyridazin-4-amine] | 5.64 | 3
[2H]C([2H])(C1CCOCC1)N1C[C@H]2C[C@H](Nc3nnc(-c4cc(F)ccc4F)c4sccc34)C[C@H]2C1 [compound 18, 7-(2,5-difluorophenyl)-N-((3aR,5s,6aS)-2-((tetrahydro-2H-pyran-4-yl)methyl-d2)octahydrocyclopenta[c]pyrrol-5-yl)thieno[2,3-d]pyridazin-4-amine] | 3 | 3
Fc1ccc(F)c(-c2nnc(N[C@H]3C[C@@H]4CN(CC5CCOCC5)C[C@@H]4C3)c3sccc23)c1 [compound 10, 4-(2,5-difluorophenyl)-N-((3aR,5s,6aS)-2-((tetrahydro-2H-pyran-4-yl)methyl)octahydrocyclopenta[c]pyrrol-5-yl)thieno[2,3-d]pyridazin-7-amine] | 6.25 | 4
Fc1ccccc1-c1nnc(N[C@H]2C[C@@H]3CN(CC4CCOCC4)C[C@@H]3C2)c2ccsc12 [compound 7, 7-(2-fluorophenyl)-N-((3aR,5s,6aS)-2-((tetrahydro-2H-pyran-4-yl)methyl)octahydrocyclopenta[c]pyrrol-5-yl)thieno[2,3-d]pyridazin-4-amine] | 7690 | 15
Fc1ccc(F)c(-c2nnc(N[C@H]3C[C@@H]4CN(CC5CCOCC5)C[C@@H]4C3)c3ccsc23)c1 [compound 2, 7-(2,5-difluorophenyl)-N-((3aR,5s,6aS)-2-((tetrahydro-2H-pyran-4-yl)methyl)octahydrocyclopenta[c]pyrrol-5-yl)thieno[2,3-d]pyridazin-4-amine] | 2.91 | 3
Cn1cc2cc(-c3nnc(N[C@H]4C[C@@H]5CN(CC6CCOCC6)C[C@@H]5C4)c4ccsc34)ccc2n1 [compound 9, 7-(2-methyl-2H-indazol-5-yl)-N-((3aR,5s,6aS)-2-((tetrahydro-2H-pyran-4-yl)methyl)octahydrocyclopenta[c]pyrrol-5-yl)thieno[2,3-d]pyridazin-4-amine] | 2.96 | 3
Fc1ccc(-c2nnc(N[C@H]3C[C@@H]4CN(CC5CCOCC5)C[C@@H]4C3)c3c2CCCC3)cc1 [compound 26, 4-(4-fluorophenyl)-N-((3aR,5s,6aS)-2-((tetrahydro-2H-pyran-4-yl)methyl)octahydrocyclopenta[c]pyrrol-5-yl)-5,6,7,8-tetrahydrophthalazin-1-amine] | 58.9 | 3
Cc1c(-c2nnc(N[C@H]3C[C@@H]4CN(CC5CCOCC5)C[C@@H]4C3)c3ccsc23)ccc2nn(C)cc12 [compound 17, 7-(2,4-dimethyl-2H-indazol-5-yl)-N-((3aR,5s,6aS)-2-((tetrahydro-2H-pyran-4-yl)methyl)octahydrocyclopenta[c]pyrrol-5-yl)thieno[2,3-d]pyridazin-4-amine] | 0.65 | 3
COc1ccccc1-c1nnc(N[C@H]2C[C@@H]3CN(CC4CCOCC4)C[C@@H]3C2)c2ccsc12 [compound 6, 7-(2-methoxyphenyl)-N-((3aR,5s,6aS)-2-((tetrahydro-2H-pyran-4-yl)methyl)octahydrocyclopenta[c]pyrrol-5-yl)thieno[2,3-d]pyridazin-4-amine] | 8080 | 20
C[C@H]1CCCN(c2nnc(N[C@H]3C[C@@H]4CN(CC5CCOCC5)C[C@@H]4C3)c3ccsc23)C1 [compound 21, 7-((S)-3-methylpiperidin-1-yl)-N-((3aR,5s,6aS)-2-((tetrahydro-2H-pyran-4-yl)methyl)octahydrocyclopenta[c]pyrrol-5-yl)thieno[2,3-d]pyridazin-4-amine] | 15.1 | 4
FC1(F)CCN(c2nnc(N[C@H]3C[C@@H]4CN(CC5CCOCC5)C[C@@H]4C3)c3c2CCCC3)CC1 [compound 22, 4-(4,4-difluoropiperidin-1-yl)-N-((3aR,5s,6aS)-2-((tetrahydro-2H-pyran-4-yl)methyl)octahydrocyclopenta[c]pyrrol-5-yl)-5,6,7,8-tetrahydrophthalazin-1-amine] | 14.6 | 3
[2H]C([2H])(C1CCOCC1)N1C[C@H]2C[C@H](Nc3nnc(-c4cc(F)ccc4C)c4sccc34)C[C@H]2C1 [compound 19, 7-(5-fluoro-2-methylphenyl)-N-((3aR,5s,6aS)-2-((tetrahydro-2H-pyran-4-yl)methyl-d2)octahydrocyclopenta[c]pyrrol-5-yl)thieno[2,3-d]pyridazin-4-amine] | 1.4 | 3
Cn1cc2cc(-c3nnc(N[C@H]4C[C@@H]5CN(CC6CCOCC6)C[C@@H]5C4)c4sccc34)ccc2n1 [compound 13, 4-(2-methyl-2H-indazol-5-yl)-N-((3aR,5s,6aS)-2-((tetrahydro-2H-pyran-4-yl)methyl)octahydrocyclopenta[c]pyrrol-5-yl)thieno[2,3-d]pyridazin-7-amine] | 0.697 | 3
Fc1ccc(F)c(-c2nnc(N[C@H]3C[C@@H]4CN(CC5CCOCC5)C[C@@H]4C3)c3c2CCCC3)c1 [compound 23, 4-(2,5-difluorophenyl)-N-((3aR,5s,6aS)-2-((tetrahydro-2H-pyran-4-yl)methyl)octahydrocyclopenta[c]pyrrol-5-yl)-5,6,7,8-tetrahydrophthalazin-1-amine] | 5.43 | 3

From patent US12319701B2, “Antagonists of the muscarinic acetylcholine receptor M4” (priority 2019, dated 2025)
